We go through nine compounds from paper PMC3877896, “New Dimeric Members of the Phomoxanthone Family: Phomolactonexanthones A, B and Deacetylphomoxanthone C Isolated from the Fungus Phomopsis sp” (Marine Drugs, 2013).

As a reminder, the IC50 is the concentration that gives 50% inhibition. The term melting point denotes the temperature of the solid-liquid transition.

Data set [1] deals with Calu-3 human lung cancer cell line. Kind of data set: MTT cytotoxicity assay, Calu-3. Conditions: mean ± SD of three independent experiments. It is filed as cell-based. As for the experimental part:
(§1) These phomoxanthone compounds (1–8) were evaluated for their cyctotoxic activity in vitro against four human cancer cell lines including human breast MDA-MB-435, human colon HCT-116, human lung Calu-3 and human liver Huh7, compared with their effects on the immortalized human breast epithelial cell line MCF-10A by MTT assay using epirubicin (an anticancer drug used widely in the clinic) as positive control.
(§2) MDA-MB-435, HCT-116, Calu-3 and Huh7 were cultured in Dulbecco’s modification Eagle’s medium (DMEM, Invitrogen, Carlsbad, CA, USA) supplemented with 10% fetal bovine serum (FBS, Hyclone, Logan, UT, USA), 2 mM L-glutamine, 100 μg/mL streptomycin and 100 U/mL penicillin (Invitrogen, Carlsbad, CA, USA). MCF-10A cells were cultured in keratinocyte serum free medium (KSFM) supplemented with 0.1–0.2 ng/mL human recombinant epidermal growth factor and 20–30 μg/mL bovine pituitary extract (Invitrogen, Carlsbad, CA, USA). The cells were incubated at 37 °C in a humidified atmosphere with 5% CO2.
(§3) Cells were harvested during logarithmic growth phase and seeded in 96-well plates at a density of 1 × 10^4 cells/mL, and cultured at 37 °C in a humidified incubator (5% CO2) for 24 h, followed by exposure to various concentrations of compounds tested for 48 h. Subsequently 20 μL of MTT (Genview, Houston, TX, USA) solution (5 mg/mL) was added to each well and mixed, the cells were then incubated for an additional 4 h. Culture supernatant was removed using the micropipette, 150 μL of DMSO (Sangon Biotech, Shanghai, China) was added to each well to fully dissolve the MTT-formazan crystals. Cell growth inhibition was determined by measuring the absorbance (Abs) at λ = 570 nm using a microplate reader and calculated according to the following equation: Growth inhibition = (1 − OD of treated cells/OD of control cells) × 100%
(§4) The half maximal inhibitory concentrations (IC50) were obtained from linear regression analysis of the concentration-response curves plotted for each tested compound.
In general terms: Formazan colour is commonly taken as a measure of viable cells.

The next data set deals with HCT-116 (colon tumor). The arrangement: method as in PMID 11520215. Conditions: cited from earlier work.
Data set [2] deals with Huh7 human liver cancer cell line. Kind of data set: MTT cytotoxicity assay, Huh7. It is filed as cell-based. Conditions: Huh-7, 48 h exposure, mean ± SD of three independent experiments. As for the experimental part:
as §1, §2, §3, §4

Data set [3] concerns MCF-10A immortalized human breast epithelial cell line. Kind of data set: MTT cytotoxicity assay, MCF-10A. It is filed as cell-based. The note with it: MCF-10A. Here is the method: as §1, §2, §3, §4
Data set [4] is described as follows: MTT cytotoxicity assay, MCF-10A. It is filed as cell-based, human. Conditions: human, MCF-10A cells, 48 h exposure, mean ± SD of three independent experiments. As for the experimental part:
as §1, §2, §3, §4

Data set [5] concerns MDA-MB-435 human breast cancer cell line. Kind of data set: MTT cytotoxicity assay, MDA-MB-435. It is filed as cell-based. Conditions: mean ± SD of three independent experiments. As for the experimental part: as §1, §2, §3, §4
For data set [6], the system named is HCT-116 human colon cancer cell line. Kind of data set: MTT cytotoxicity assay, HCT-116. It is filed as cell-based. The note with it: mean ± SD of three independent experiments. As for the experimental part: as §1, §2, §3, §4
Data set [7] concerns four human cancer cell lines (MDA-MB-435, HCT-116, Calu-3, Huh7). Kind of data set: MTT cytotoxicity assay, tested cancer cell lines taken together. It is filed as cell-based. The note with it: for cytotoxic activities against tested cancer cell lines (in words): MDA-MB-435, HCT-116, Calu-3, Huh7. Here is the method: as §1, §2, §3, §4
The subject of a further data set is A549 (lung tumor). The arrangement: method as in PMID 11520215. The note with it: cited from earlier work.
Setting [8] is: Homo sapiens, Calu-3, 48 h, 48 h exposure.
The mark [9] stands for this setting: Homo sapiens, MDA-MB-435, 48 h, 48 h exposure.
The mark [10] stands for this setting: Homo sapiens, HCT-116, 48 h, 48 h exposure.
Setting [11] is: Homo sapiens, Calu-3, 48 h exposure.
The mark [12] stands for this setting: Homo sapiens, HCT-116, 48 h exposure.

For the compound `CC(=O)O[C@@H]1[C@H](C)CC(O)=C2C(=O)c3c(ccc(-c4ccc5c(c4O)C(=O)C4=C(O)C[C@@H](C)[C@@H](OC(C)=O)[C@@]4(CO)O5)c3O)O[C@@]21CO` [Compound 4, dicerandrol A], the IC50 in [1] (setting [8]) was 1.76 ± 0.02 µM; in data set [2], 4.19 ± 0.08 µM; in [5] (setting [9]), 3.03 ± 0.12 µM; in data set [6] (setting [10]) it was 2.64 ± 0.03 µM; in data set [7] (Homo sapiens, summary statement of the abstract, cell lines not specified, read-out: IC50 against tested cancer cell lines), < 10 µM. Also, in the data set with HCT-116 (colon tumor), the “cytotoxic activity against HCT-116 compared with dicerandrol B (in words)” value is given as “less cytotoxic activities than dicerandrol B”. In addition, the “cytotoxic effect on the immortalized human breast epithelial cell line (in words)” value (“cytotoxic effect” for short) in [3] was “displayed cytotoxic effect”. The midpoint of inhibition in data set [4], the IC50 at 48 h, lay at 28.3 ± 3.57 µM. Moreover, the “cytotoxic activities against tested cancer cell lines (in words)” value (shortened to “cytotoxic activities”) in [7] (MTT) is “significant cytotoxic activities”. In addition, in the data set on A549 (lung tumor), the “cytotoxic activity against A549 compared with dicerandrol B (in words)” value was “less cytotoxic activities than dicerandrol B”.

`CC(=O)O[C@@H]1[C@H](C)CC(O)=C2C(=O)c3c(ccc(-c4ccc(O)c5c4O[C@@]4(CO)C(=C(O)C[C@@H](C)[C@H]4OC(C)=O)C5=O)c3O)O[C@@]21CO` [Compound 7, deacetylphomoxanthone B]: the IC50 in [1] (setting [8]) amounted to 4.14 ± 0.02 µM; in data set [2], 29.2 ± 1.19 µM; in [5] (setting [9]) it was 14.4 ± 1.18 µM; in [6] (setting [10]), 7.12 ± 0.7 µM. Besides, in [3], the “cytotoxic effect” value is listed as “no cytotoxic effect”. Besides, the IC50 at 48 h in data set [4] is > 50 µM. Besides, the “cytotoxic activities” value in [7] (MTT) is “excellent selective activities against HCT-116 and Calu-3 cell lines over other cancer cell lines”.

With `CC(=O)OCC1(C2OC(=O)CC2C)CC(=O)c2c(O)ccc(-c3ccc4c(c3O)C(=O)C3=C(O)CC(C)C(OC(C)=O)C3(CO)O4)c2O1` (stereo not drawn) [Compound 1, Phomolactonexanthone A], the concentration for half-maximal inhibition (IC50) in [1] (setting [8]) was 43.5 ± 2.51 µM; in [2], > 50 µM; in [5] (setting [9]) it was > 50 µM; in data set [6] (setting [10]), > 50 µM. The “cytotoxic effect” value in [3] was “no cytotoxic effect”. Moreover, the IC50 at 48 h in data set [4] was > 50 µM. Moreover, the “cytotoxic activities” value in data set [7] (MTT) is reported as “weak/no cytotoxic activities”.

Take `CC(=O)OCC1(C2OC(=O)CC2C)CC(=O)c2c(ccc(-c3ccc4c(c3O)C(=O)C3=C(O)CC(C)C(OC(C)=O)C3(CO)O4)c2O)O1` (stereo not drawn) [Compound 2, Phomolactonexanthone B]: the melting point lay in the range of 101.6 to 102.4 °C. In addition, the IC50 in data set [1] (setting [11]) was > 50 µM. For the same compound, the IC50 in data set [2] was > 50 µM. The “cytotoxic effect” value in data set [3] is reported as “no cytotoxic effect”. Also, in data set [4], the IC50 at 48 h was > 50 µM. In [5] (Homo sapiens, MDA-MB-435, 48 h exposure), the IC50 was > 50 µM. For the same compound, the IC50 in data set [6] (setting [12]) was > 50 µM. The “cytotoxic activities” value in [7] (MTT) is given as “weak/no cytotoxic activities”.

For `COc1cccc2c1C(=O)c1c(O)c3c(c(O)c1C2=O)C[C@@](O)(C(=O)CO)C[C@@H]3O[C@H]1C[C@H](N)[C@@H](O)[C@H](C)O1` [epirubicin, reference compound], the IC50 in [1] (setting [11]) came out at 1.03 ± 0.1 µM; in [2], 0.96 ± 0.01 µM; in data set [6] (setting [12]), 0.48 ± 0.029 µM. Inhibition in [4] was half-maximal at 0.48 ± 0.08 µM (IC50 at 48 h).

Turning to `CC(=O)OC[C@]12Oc3ccc(-c4ccc5c(c4O)C(=O)C4=C(O)C[C@@H](C)[C@@H](OC(C)=O)[C@@]4(CO)O5)c(O)c3C(=O)C1=C(O)C[C@@H](C)[C@H]2OC(C)=O` [Compound 5, dicerandrol B], the results for the half-inhibitory concentration (IC50) in [2], in data set [5] (48 h exposure) and in [5] (setting [9]) were 30.4 ± 1.1 µM, 8.65 ± 0.66 µM and < 10 µM, respectively. Further, the “cytotoxic effect” value in data set [3] is recorded as “less marked cytotoxic effect”. For the same compound, the IC50 at 48 h in [4] came to 8.14 ± 1.27 µM.

In the case of `CC(=O)OC[C@]12Oc3ccc(-c4ccc5c(c4O)C(=O)C4=C(O)C[C@@H](C)[C@@H](OC(C)=O)[C@@]4(COC(C)=O)O5)c(O)c3C(=O)C1=C(O)C[C@@H](C)[C@H]2OC(C)=O` [Compound 6, dicerandrol C], the IC50 in data set [1] (setting [8]) was 36.5 ± 3.32 µM; in data set [2] it was > 50 µM; in data set [5] (setting [9]), 44.1 ± 2.45 µM; in [6] (setting [10]) it was 42.6 ± 2.9 µM. Further, inhibition in data set [4] was half-maximal at 33 ± 2.74 µM (IC50 at 48 h). Further, the “anticancer activities against MDA-MB-435, HCT-116 and Calu-3 (in words)” value in [7] (MTT, MDA-MB-435, HCT-116, Calu-3) was “weak anticancer activities”.

`CC(=O)OC[C@]12Oc3ccc(-c4ccc(O)c5c4O[C@@]4(CO)C(=C(O)C[C@@H](C)[C@H]4OC(C)=O)C5=O)c(O)c3C(=O)C1=C(O)C[C@@H](C)[C@H]2OC(C)=O` [Compound 8, penexanthone A]: the half-maximal inhibitory concentration (IC50) was 6.44 ± 0.86 µM in data set [1] (48 h exposure); < 10 µM in data set [1] (setting [8]); 42.8 ± 3.58 µM in data set [2]; 7.9 ± 0.58 µM in [5] (48 h exposure); < 10 µM in [5] (setting [9]); 6.92 ± 0.38 µM in data set [6] (48 h exposure). Also, the IC50 in data set [6] (setting [10]) was < 10 µM. The “cytotoxic effect” value in [3] is “less marked cytotoxic effect”. This compound also returned an IC50 at 48 h in data set [4] of 16.1 ± 1.57 µM.

In the case of `CC(=O)O[C@@H]1[C@H](C)CC(O)=C2C(=O)c3c(O)ccc(-c4ccc(O)c5c4O[C@@]4(CO)C(=C(O)C[C@@H](C)[C@H]4OC(C)=O)C5=O)c3O[C@@]21CO` [Compound 3, Deacetylphomoxanthone C], the IC50 in data set [1] (setting [8]) was 43.4 ± 2.09 µM; in [2], > 50 µM; in [5] (setting [9]), > 50 µM; in [6] (setting [10]) it was 44.1 ± 3.29 µM. Moreover, the “cytotoxic effect” value in data set [3] is “no cytotoxic effect”. Also, in data set [4], the IC50 at 48 h was > 50 µM. Further, the “cytotoxic activities” value in [7] (MTT) is recorded as “weak/no cytotoxic activities”.
